Data: patent EP4786466A1, “QUINAZOLINE DERIVATIVE, SALT THEREOF, AND PHARMACEUTICAL COMPOSITION COMPRISING SAME AS ACTIVE INGREDIENT” (Korea Research Institute of Chemical Technology, priority 2023, dated 2025)
Where two headings read alike, the source gives them in different places.

What was measured:
[1] = system: MCF7 breast cancer cell lines; assay: Cell viability analysis, WST-8 assay, MCF7; settings: Homo sapiens, MCF7, 72 h; for viability at 1 µM: read-out: Cell viability (%) WST-8, MCF7 (1 µM), compound 1 µM, 72 hours
Method: (§1) MCF7 breast cancer cell lines and MCF10A normal breast cancer cell lines were treated with serial dilutions of the compounds of the present invention ranging from 1 µM to 15.63 nM for 72 hours. Cell viability was measured by the WST-8 assay (Cyto XTM cell viability assay kit; LPS solution, Daejeon, Korea) according to the manufacturer's instructions.

[2] = in vitro; settings: human, mcf10a cells
Method: as §1

[3] = system: pENSA; assay: pENSA level by immunofluorescence (described method: in vitro kinase analysis with GST-tag-MASTL and His-tag-ENSA); type: cell-based; settings: for pENSA (%) Immunofluor ecense (1 µM): compound 1 µM
How it was run: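 In vitro kinase reaction using recombinant GST-tagged MASTL with His-tagged ENSA as substrate; phosphorylated ENSA (pENSA) serves as read-out of MASTL activity. Cell lines named: MCF7 breast cancer and MCF10A.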

[4] = target: T1, Recombinant GST-TAG-MASTL (Homo sapiens, UniProt Q96GX5); assay: HTRF-based kinase assay (HTRF KinEASE assay kit); type: biochemical; settings: for IC50: HTRF, read-out: IC50(nM) MASTL activity; for activity at 1 µM: read-out: MASTL activity (%) HTRF (1 µM)
T1 construct: GST; purchased Thermo Fisher Scientific
T1 sequence (Q96GX5 1-879): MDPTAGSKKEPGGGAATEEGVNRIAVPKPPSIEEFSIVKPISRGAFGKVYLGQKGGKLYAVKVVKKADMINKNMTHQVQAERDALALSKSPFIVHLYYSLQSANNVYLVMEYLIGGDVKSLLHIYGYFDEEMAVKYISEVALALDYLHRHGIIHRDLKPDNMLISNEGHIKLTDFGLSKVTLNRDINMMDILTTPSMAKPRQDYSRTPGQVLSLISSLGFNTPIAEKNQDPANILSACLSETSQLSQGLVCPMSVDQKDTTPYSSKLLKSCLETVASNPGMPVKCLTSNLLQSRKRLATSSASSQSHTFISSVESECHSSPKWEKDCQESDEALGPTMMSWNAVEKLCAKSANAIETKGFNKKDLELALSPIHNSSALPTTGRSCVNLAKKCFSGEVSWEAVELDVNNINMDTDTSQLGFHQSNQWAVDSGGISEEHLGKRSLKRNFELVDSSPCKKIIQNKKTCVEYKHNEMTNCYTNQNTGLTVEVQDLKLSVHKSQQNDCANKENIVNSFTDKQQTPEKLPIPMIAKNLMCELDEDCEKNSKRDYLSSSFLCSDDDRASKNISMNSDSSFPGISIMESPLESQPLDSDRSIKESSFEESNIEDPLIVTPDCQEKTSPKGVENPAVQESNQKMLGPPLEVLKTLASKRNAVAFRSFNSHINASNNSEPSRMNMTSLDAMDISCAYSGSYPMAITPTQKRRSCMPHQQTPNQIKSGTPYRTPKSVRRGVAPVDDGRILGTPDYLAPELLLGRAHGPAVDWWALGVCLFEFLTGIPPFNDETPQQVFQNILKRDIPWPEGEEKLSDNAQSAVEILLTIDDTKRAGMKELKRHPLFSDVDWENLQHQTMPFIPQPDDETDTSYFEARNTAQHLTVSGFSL
Text: Recombinant GST-TAG-MASTL (Thermo Fisher Scientific, MA, USA) was used for HTRF-based kinase assays. The HTRF KinEASE assay kit (CisBio, MA, USA) was used according to the manufacturer's instructions.

Row | Structure (SMILES) | viability at 1 µM [1] [%] | viability at 1 µM [2] [%] | pENSA (%) Immunofluor ecense (1 µM) [3] [%] | IC50 [4] [nM] | activity at 1 µM ([4]; compound 1 µM) [%] | activity at 1 µM [4] [%] | IC50 ([3]; read-out: IC50(nM) pENSA) [nM] | viability at 1.1 µM ([1]; read-out: Cell viability (%) WST-8, MCF7, footnote d: concentration 1.1 µM, 72 hours) [%] | viability at 1.1 µM [2] [%]
1 | Fc1ccccc1C1=CCN(c2nc(Nc3cc(C4CC4)[nH]n3)c3ccccc3n2)CC1 [compound 6k, M-(5-cyclopropyl-1G-pyrazol-3-yl)-2-(4-(2-fluorophenyl)-3,6-dihydropyridin-1(2G)-yl)quinazolin-4-amine] | 91 | 90.8 | 82 | 406 | 40.6 |  |  |  | 
2 | CCc1ccccc1C1=CCN(c2nc(Nc3cc(C4CC4)[nH]n3)c3ccccc3n2)CC1 [compound 6m, M-(5-cyclopropyl-1G-pyrazol-3-yl)-2-(4-(2-ethylphenyl)-3,6-dihydropyridin-1(2G)-yl)quinazolin-4-amine] | 65.7 | 115 | 97.1 |  | 51.8 |  |  |  | 
3 | CC(C)(C)OC(=O)N1CC=C(c2nc(Nc3cc(C4CC4)[nH]n3)c3ccccc3n2)CC1 [compound 7, sdqs-butyl 4-(4-((5-cyclopropyl-1G-pyrazol-3-yl)amino)quinazolin-2-yl)-3,6-dihydropyridine-1(2G)-carboxylate] | 84.2 | 54.9 | 68.2 | 315 | 31 |  |  |  | 
4 | C1=C(c2nc(Nc3cc(C4CC4)[nH]n3)c3ccccc3n2)CCNC1 [compound 8, M-(5-cyclopropyl-1G-pyrazol-3-yl)-2-(1,2,3,6-tetrahydropyridin-4-yl)quinazolin-4-amine trifluoroacetic acid] | 64.3 | 80.8 | 53 |  |  | 57.2 |  |  | 
5 | O=C(c1ccccc1)N1CC=C(c2nc(Nc3cc(C4CC4)[nH]n3)c3ccccc3n2)CC1 [compound 9a, (4-(4-((5-cyclopropyl-1G-pyrazol-3-yl)amino)quinazolin-2-yl)-3,6-dihydropyridin-1(2G)-yl)(phenyl)methanone] | 63.8 | 49.7 | 50.5 | 203 | 45.5 |  |  |  | 
6 | CC(C)(C)OC(=O)N1CCN(c2nc(Nc3cc(C4CC4)[nH]n3)c3ccccc3n2)CC1 [compound 10, sdqs-butyl 4-(4-((5-cyclopropyl-1G-pyrazol-3-yl)amino)quinazolin-2-yl)piperazine-1-carboxylate] | 61.4 | 60.7 | 50.3 | 569 | 24.1 |  |  |  | 
7 | O=C(Nc1ccccc1)N1CC2CC1CN2c1nc(Nc2cc(C3CC3)[nH]n2)c2ccccc2n1 (centres unmarked) [compound 15c, 5-(4-((5-cyclopropyl-1G-pyrazol-3-yl)amino)quinazolin-2-yl)-M-phenyl-2,5-diazabicyclo[2.2.1]heptane-2-carboxamide] | 93 | 40 | 11.3 | 265 | 41.2 |  | 576 |  | 
8 | CC(C)C(=O)N1CC2CC1CN2c1nc(Nc2cc(C3CC3)[nH]n2)c2ccccc2n1 (centres unmarked) [compound 15d, 1-(5-(4-((5-cyclopropyl-1G-pyrazol-3-yl)amino)quinazolin-2-yl)-2,5-diazabicyclo[2.2.1]heptan-2-yl)-2-methylpropan-1-one] | 51.5 | 40.3 | 68.6 |  | 58.8 |  |  |  | 
9 | O=C(c1ccccc1)N1CC2CC1CN2c1nc(Nc2cc(C3CC3)[nH]n2)c2ccccc2n1 (centres unmarked) [compound 15e, (5-(4-((5-cyclopropyl-1G-pyrazol-3-yl)amino)quinazolin-2-yl)-2,5-diazabicyclo[2.2.1]heptan-2-yl)(phenyl)methanone] | 68.3 | 31.3 | 48.2 |  | 80 |  |  |  | 
10 | CC(C)CN1CC2CC1CN2c1nc(Nc2cc(C3CC3)[nH]n2)c2ccccc2n1 (centres unmarked) [compound 15f, M-(5-cyclopropyl-1G-pyrazol-3-yl)-2-(5-isobutyl-2,5-diazabicyclo[2.2.1]heptan-2-yl)quinazolin-4-amine] | 71.7 | 90.1 | 65.3 |  | 65.7 |  |  |  | 
11 | c1ccc(CN2CC3CC2CN3c2nc(Nc3cc(C4CC4)[nH]n3)c3ccccc3n2)cc1 (centres unmarked) [compound 15g, 2-(5-benzyl-2,5-diazabicyclo[2.2.1]heptan-2-yl)-M-(5-cyclopropyl-1G-pyrazol-3-yl)quinazolin-4-amine] | 54.4 | 42.9 | 65.6 | 225 | 27.9 |  |  |  | 
12 | O=S(=O)(c1cccc(Cl)c1)N1CC2CC1CN2c1nc(Nc2cc(C3CC3)[nH]n2)c2ccccc2n1 (centres unmarked) [compound 15q, 2-(5-((3-chlorophenyl)sulfonyl)-2,5-diazabicyclo[2.2.1]heptan-2-yl)-M-(5-cyclopropyl-1G-pyrazol-3-yl)quinazolin-4-amine] |  |  | 62.5 | 545 | 49.2 |  |  | 106 | 108
13 | O=S(=O)(c1cccc(C(F)(F)F)c1)N1CC2CC1CN2c1nc(Nc2cc(C3CC3)[nH]n2)c2ccccc2n1 (centres unmarked) [compound 15u, M-(5-cyclopropyl-1G-pyrazol-3-yl)-2-(5-((3-(trifluoromethyl)phenyl)sulfonyl)-2,5-diazabicyclo[2.2.1]heptan-2-yl)quinazolin-4-amine] | 107 | 121 | 100 | 269 | 48.3 |  |  |  | 
14 | Cc1ccc(S(=O)(=O)N2CC3CC2CN3c2nc(Nc3cc(C4CC4)[nH]n3)c3ccccc3n2)cc1F (centres unmarked) [compound 15w, M-(5-cyclopropyl-1G-pyrazol-3-yl)-2-(5-((3-fluoro-4-methylphenyl)sulfonyl)-2,5-diazabicyclo[2.2.1]heptan-2-yl)quinazolin-4-amine] | 93.5 | 107 | 86.2 |  | 64.1 |  |  |  | 
15 | CCCc1ccc(S(=O)(=O)N2CC3CC2CN3c2nc(Nc3cc(C4CC4)[nH]n3)c3ccccc3n2)cc1 (centres unmarked) [compound 15x, M-(5-cyclopropyl-1G-pyrazol-3-yl)-2-(5-((4-propylphenyl)sulfonyl)-2,5-diazabicyclo[2.2.1]heptan-2-yl)quinazolin-4-amine] | 122 | 98.3 | 94.0 |  | 68.4 |  |  |  | 
16 | O=S(=O)(c1cccc2cccnc12)N1CC2CC1CN2c1nc(Nc2cc(C3CC3)[nH]n2)c2ccccc2n1 (centres unmarked) [compound 15z, M-(5-cyclopropyl-1G-pyrazol-3-yl)-2-(5-(quinolin-8-ylsulfonyl)-2,5-diazabicyclo[2.2.1]heptan-2-yl)quinazolin-4-amine] | 110 | 111 | 102 |  | 105 |  |  |  | 
17 | O=S(=O)(c1ccc(F)cc1F)N1CC2CCC1CN2c1nc(Nc2cc(C3CC3)[nH]n2)c2ccccc2n1 (centres unmarked) [compound 24c, M-(5-cyclopropyl-1G-pyrazol-3-yl)-2-(5-((2,4-difluorophenyl)sulfonyl)-2,5-diazabicyclo[2.2.2]octan-2-yl)quinazolin-4-amine] | 68.3 | 10.8 | 24.3 |  | 16.6 |  |  |  | 
